Drawing on a melting point compilation (Tetko et al.; mined from patent text by program, amines drawn as free bases though some values may be those of a salt), this text covers melting point for 86 compounds.

Some results are limits rather than exact numbers.

In general, melting point refers to the temperature of the solid-liquid transition.

Take `CC(C)CC(CP(=O)(O)CNC(=O)c1ccccc1)C(=O)N(c1ccc(-c2ccccc2)cc1)[C@@H](C)C(=O)O` (stereo partly specified): the melting point lay in the range of 148 to 150 °C.

On to `COc1ccc(-c2nccc(C(N)=O)c2N)cc1`, for which the melting point lay in the range of 179 to 181 °C.

With `C=CCOc1ccc(OC2CCCCO2)c2c1CCC(=O)N2` (stereo unspecified), the melting point was in the range of 113 to 115 °C.

With `COc1cc2[nH]c(N(C)Cc3cccc(OCCO)c3)nc(=O)c2c(OC)c1OC`, the melting point was in the range of 146 to 148 °C. Then `Cc1cc(C(=O)c2ccccc2)c(C)n1C(C)C(=O)Nc1ccccc1` (stereo unspecified), with 165 to 166 °C.

`O=C(O)CN1C(=O)C(NC(=O)Nc2cccc3ccccc23)CCc2ccccc21` (stereo unspecified) had a melting point of 215 to 216 °C. For `CNC[C@@H]1CN(c2nc3c(cc2F)c(=O)c(C(=O)O)cn3C2CC2)C[C@@H]1F` (relative stereo), the melting point fell in the range of 230 to 240 °C. As to `COc1cc(OC)nc(NC(=O)NS(=O)(=O)c2ccccc2CCCl)n1`, the melting point was in the range of 169 to 171 °C. Then `CC(=NO)c1ccc(N)c(C(=NO)c2ccccc2F)c1`, with 165 °C.

In turn, `Cc1ccccc1N1CCN(CC(O)COc2cccc3c2CCCC3=O)CC1` (stereo unspecified) returned a melting point of 183 to 184 °C. In turn, `N#Cc1nccn1Cc1ccccc1` yielded a melting point of 51 to 52 °C. Then `COc1c(C)c(N2CCN(c3ccc(C(F)(F)F)cc3)CC2)c(C)c2c1OC(C)C2` (stereo unspecified), with 142 to 145 °C. Compound `Cc1ccc(CSc2c(O)cc(C)oc2=O)cc1` came in with a melting point of 134 to 135 °C. Then `CCC1CCc2cc(CC(=O)O)ccc2O1` (stereo unspecified), with 88 to 90 °C; and `CC(C(=O)O)c1ccc2c(c1)C(=O)Cc1ccc(Cl)cc1S2` (stereo unspecified), with 142 to 143 °C; and `CC=CC(O)c1c(C(C)C)nc(C(C)C)c(CCCCC)c1-c1ccc(F)cc1` (stereo unspecified), with 70 to 72 °C.

For `O=c1c(CO)cc(-c2ccc3occc3c2)nn1Cc1ccc(F)cc1`, the melting point was 158 to 160 °C.

`CSc1cc(-c2nc(=O)c3ccccc3s2)ccn1` registered a melting point of 173 to 174 °C. Then `C/C(=C\c1ccc(O)cc1)c1ccc2c(c1)SC(C)(C)S2`, with 123 to 124 °C; and `CC(=O)Nc1ccc(SC(CCc2ccc(Cl)cc2)Cn2ccnc2)cc1` (stereo unspecified), with 166 °C; and `Cc1nc([C@@H]2C[C@H]2c2ccc3ccccc3n2)cc(-n2nc(C)nc2C)n1` (relative stereo), with 140 to 141 °C. With `CCCCC[C@H]1CC[C@H](c2cnc(C#N)nc2)CC1`, the melting point was found to be 83.5 °C. Then `Nc1ncc(-c2ccc3ncc(-c4ccc(CO)cc4)n3n2)cc1C(F)(F)F`, with 290 to 292 °C; and `O=[N+]([O-])c1ccc(N2CCN(CCO)CC2)cc1`, with 98 to 99 °C.

`Clc1cc(-c2ccnc(NCC3CCCO3)n2)ccn1` (stereo unspecified) gave a melting point of 74 to 75 °C. With `O=C1c2cccc(NC(=S)Nc3cccc(Br)n3)c2C2CCCCN12` (stereo unspecified), the melting point was found to be 195 °C. Then `CCNC(=O)c1ccc2oc(C(=O)C(Cc3ccccc3)NC(=O)Cn3c(-c4ccc(F)cc4)ncc(NC(=O)OCc4ccccc4)c3=O)nc2c1` (stereo unspecified), with 256 to 261 °C. The compound `CCOCCN(C(=O)Nc1ccc(C(=O)O)cc1)c1ccc2c(c1)C(C)(C)CCC2(C)C` gave a melting point of 82 to 85 °C. In turn, `CCCCCCC(C)Oc1cc(O)c2c(C)c(CCC(=O)OCC)c(=O)oc2c1` (stereo unspecified) showed a melting point of 116 to 117 °C.

Compound `CNC(=NC#N)Nc1cccc(C(=O)NCCSCc2ccc(CN(C)C)o2)c1` gave a melting point of 140 to 142 °C. On to `COc1ccnc(C(=O)Nc2ccc(Oc3ccc(C(F)(F)F)cc3)cc2)c1O`, for which the melting point lay in the range of 91 to 93 °C. The compound `O=C1N(Cc2ccc(Cl)s2)c2ccccc2C1(O)c1cc(OCc2ccccc2)ccc1O` (stereo unspecified) gave a melting point of 174 to 175 °C.

As to `CCCCN(CCCC)c1ccc(C=Cc2ccc(C=CC3=C(C#N)C(=C(C#N)C#N)OC3(C)C)cc2)cc1`, the melting point is 224 to 226 °C. Then `CS(=O)(=O)c1ccccc1SCc1ccccc1`, with 132 to 133 °C; and `Cc1cc2c(N)c(C(=O)c3cc(F)ccc3F)sc2nc1C`, with 188 °C; and `COC(=O)Nc1nc2cc(SCC3CC3)ccc2[nH]1`, with 228 to 231 °C. Then `CC(=O)Nc1cccc(-c2ccc3nnn(Cc4ccc5ncccc5c4)c3n2)c1`, with 198 to 201 °C; and `Cc1cc(F)c(-n2ccc(O)n2)cc1SCC(F)(F)F`, with 166 to 168 °C; and `COc1ccc(CN(C)CCCOc2cccc(NC(=O)c3cccc4c(=O)c5cccc(OC)c5[nH]c34)c2)cc1OC`, with 124 °C.

The compound `CCOC(=O)c1cnn2c(-c3cccc(C)n3)ccnc12` had a melting point of 135 to 137 °C.

For the compound `CN(C)c1nc(=O)n(-c2cc(OCc3ccccc3)c(Cl)cc2F)c(=O)n1C`, the melting point fell in the range of 193 to 194 °C. Then `Oc1ccccc1C=NCCN=Cc1ccccc1O`, with 126 °C; and `COC1CCC2C3CCC4CC(=O)C=CC4(C)C3CCC12C` (stereo unspecified), with 115 to 117 °C. Then `Cc1ccc(S(=O)(=O)OCC2COc3ccc4nocc4c3O2)cc1` (stereo unspecified), with 109 to 110 °C; and `c1ccc2c(OCCNCCCc3c[nH]c4ccccc34)cccc2c1`, with 119 to 120 °C; and `COC(=O)N[C@H](C(=O)N[C@@H](Cc1ccccc1)[C@H](O)CN1C[C@H]2CCCC[C@H]2C[C@H]1C(=O)NC(C)(C)C)C(C)(C)S(C)(=O)=O`, with 190 to 194 °C. The compound `Clc1ccc(-c2nc(COc3ccc(CCCn4ccnc4)cc3)co2)o1` returned a melting point of 88 to 89 °C. Consider `O=C1C2CCCCC2C(=O)N1c1c(F)cc(F)cc1F` (stereo unspecified), for which the melting point lay within 129 to 131 °C. In turn, `CCCCOC(=O)n1nc(-c2cccc(Br)c2)ccc1=O` had a melting point of 126 to 129 °C. The compound `O=C(NC(=S)Nc1nc(-c2ccc3c(c2)CCCC3)cs1)c1cccc2ccccc12` returned a melting point of 216 to 217 °C.

As to `CC(c1ccccc1)n1c(N)c(C#N)c2c1CCCC2` (stereo unspecified), the melting point was determined as 129 °C. In the case of `C#CCN(C)c1nc(CO)cs1`, the melting point lay in the range of 69 to 70 °C.

With `CCC(=O)NC(C)(C)c1ccc(C(=O)Nc2cn3cc(Cl)ccc3n2)cc1`, the melting point is 249 to 252 °C. Then `O=C(Nc1ccccc1N1CCc2ccccc21)c1ccccc1`, with 73 to 76 °C. Consider `O=C(Nc1nc(-c2ccco2)c(C(=O)c2ccncn2)s1)c1ccncc1`, for which the melting point was over 300 °C.

Regarding `CC(C)c1nccn1Cc1ccc2c(c1)-c1[nH]nc(-c3ccsc3)c1C2`, the melting point is 128 to 129 °C. Compound `COCCn1cc(-c2ccc3nnn(Cc4ccc5ncccc5c4)c3n2)cn1` yielded a melting point of 162 to 164 °C.

On to `O=C(CCCN1CCOCC1)Nc1cccc(-c2ccnc3c(C(=O)c4cccs4)cnn23)c1`, for which the melting point is 127 to 133 °C. Then `Fc1ccc(C(Cl)=NNc2ccccc2)cc1`, with 118 to 120 °C; and `CCOC(=O)C(C(=O)Nc1ccc(C)cc1)(c1ccccc1)c1ccccc1`, with 88 to 90 °C. Then `CCc1nc(-c2ccc(N3CCN(C(=O)c4ccccc4C(F)(F)F)CC3)nn2)no1`, with 204 °C; and `CCCOc1ccc(-c2scc(-c3ccccc3OC(F)(F)F)c2CC(=O)N=C(N)N)cc1`, with 90 to 92 °C; and `CC#CCOc1ccc(S(=O)(=O)N(C)C(C(=O)NO)c2ccc(OCCCNC(=O)OCc3ccccc3)cc2)cc1` (stereo unspecified), with 48 to 50 °C. Compound `Cc1cc(C)c2cccc(OCc3c(Cl)ccc(S(=O)(=O)N4CCC[C@H]4C(=O)NCCCNC(=O)c4cccc(C=NN)c4)c3Cl)c2n1` displayed a melting point of 116 to 120 °C.

Consider `COc1ccc2c(c1)c(CC(=O)OCC(=O)O)c(C)n2C(=O)c1ccc(F)c(F)c1`, for which the melting point was in the range of 128 to 129 °C. The compound `Cc1oc(-c2ccco2)nc1COc1ccc(COc2nn(Cc3ccccc3)cc2C=O)cc1OCc1ccccc1` gave a melting point of 130 to 131 °C. Take `NC(CCCCNC(=O)OCc1ccccc1)C(=O)Nc1cccc2ccccc12` (stereo unspecified): the melting point was 138 to 140 °C. Then `CC1(C)Nc2ccccc2-c2c([N+](=O)[O-])cnn21`, with 193 to 195 °C; and `CCOC(=O)CN(c1ccncc1F)n1ccc2ccccc21`, with 86 to 87 °C; and `CN(C)Cc1nc(N)nc(N)c1-c1ccc(Cl)cc1Cl`, with 170 to 172 °C. Compound `NC(=O)Cc1cc(Oc2ccc3c(ccn3C(=O)Nc3ccc(N4CCS(=O)(=O)CC4)c(C(F)(F)F)c3)c2)ncn1` came in with a melting point of 284 to 285 °C. Consider `Cc1c(Cl)cc(C(=O)C=CC(=O)O)cc1Cl`, for which the melting point lay in the range of 206 to 216 °C.

In the case of `C#Cc1c(-c2ccc(OC(F)F)c(OC3CC3)c2)[nH]c2cn[nH]c(=O)c12`, the melting point is over 300 °C. In turn, `CS(=O)(=O)c1ccc(-c2[nH]nc(C(=O)CCCO[N+](=O)[O-])c2-c2ccc(C#N)cc2)cc1` registered a melting point of 148 to 149 °C. Then `CC(=O)Nc1nc(CC(=O)O)ns1`, with 161 to 163 °C. Then `CCOCc1nc2c(N)nc3cc(-c4ccccc4)ccc3c2n1CC1CCNCC1`, with 142 to 143 °C; and `COc1ccccc1CCc1ccccc1C(=O)O`, with 118 to 119 °C. With `CCCc1nc2c(N)nc(C)c(C)c2n1CCCCN(O)C(C)=O`, the melting point lay in the range of 164 to 166 °C. `COc1cc(Cl)ccc1C(Nc1ccc(F)c2nc(C)ncc12)C(O)(C=C(C)C)C(F)(F)F` (stereo unspecified) yielded a melting point of 118 °C. Then `Fc1ccc(Oc2ccc(-c3c[nH]cn3)cc2)cc1`, with 165 to 168 °C; and `CCOC(=O)c1nn(Cc2ccc(OC)c(OC)c2)c2cc(OC)c(OC)cc12`, with 138 to 141 °C; and `CC1=CC(COC(c2ccccc2)(c2ccccc2)c2ccccc2)OC1O` (stereo unspecified), with 100 to 102 °C. As to `Cc1oc2c(OC(C)C(N)=NO)cccc2c1C` (stereo unspecified), the melting point lay within 147 to 148 °C. Then `COc1cc(-c2ccc(C=O)o2)ccc1Br`, with 127 to 128 °C; and `CCC1CC2C3CCC(C(C)CC(C)C(=O)O)C3(C)CCC2C2(C)CCC(O)CC12` (stereo unspecified), with 138 °C; and `CSC1=NS(=O)(=O)c2cscc21`, with 184 to 186 °C.
